The source of these data is patent publication US20100016366A1, “Novel Compounds Active as Muscarinic Receptor Antagonists” (priority 2008, published 2010).

pKi: −log10 of the molar value.

T1 sequence (P20309 whole entry): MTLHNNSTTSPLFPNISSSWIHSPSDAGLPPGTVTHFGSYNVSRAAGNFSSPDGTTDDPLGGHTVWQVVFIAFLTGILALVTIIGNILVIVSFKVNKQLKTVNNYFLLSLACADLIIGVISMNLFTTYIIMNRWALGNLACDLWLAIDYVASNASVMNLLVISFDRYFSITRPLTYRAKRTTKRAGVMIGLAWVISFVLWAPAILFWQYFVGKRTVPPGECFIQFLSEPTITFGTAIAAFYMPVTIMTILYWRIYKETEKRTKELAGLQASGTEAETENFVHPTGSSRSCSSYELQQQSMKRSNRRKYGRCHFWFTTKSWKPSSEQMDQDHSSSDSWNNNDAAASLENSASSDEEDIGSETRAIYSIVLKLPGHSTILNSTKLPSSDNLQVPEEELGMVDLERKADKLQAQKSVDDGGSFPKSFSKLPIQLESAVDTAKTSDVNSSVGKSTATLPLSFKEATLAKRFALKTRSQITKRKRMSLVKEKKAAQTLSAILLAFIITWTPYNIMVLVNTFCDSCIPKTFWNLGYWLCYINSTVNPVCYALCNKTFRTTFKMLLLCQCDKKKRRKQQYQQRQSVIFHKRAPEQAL

The assay has as its target T1, human muscarinic M3 receptor (Homo sapiens, UniProt P20309).
T1 construct: expressed in transfected cells; host or cells: CHO (CHO-K1) cells
The assay can be described thus: hM3 competition binding assay (3H-NMS, CHO cell membranes). Particulars: CHO cell membranes expressing human M3; 3H-NMS at 5×KD, 24 hr at RT; IC50 corrected by Cheng-Prussoff. How it is done: Binding Affinity Assessment at the Human Recombinant M3 Muscarinic Receptor
Cell Pellets from CHO (Chinese Hamster Ovary) cells recombinantly expressing the human muscarinic M3 receptor were homogenised in 20 mM HEPES (pH7.4) and centrifuged at 48000×g for 20 min at 4° C. The pellet was re-suspended in buffer and the homogenisation and centrifugation steps repeated. The resulting pellet was re-suspended in 1 ml buffer per 1 ml original packed cell volume and the homogenisation step repeated. Protein estimation was carried out on the suspension and 1 ml aliquots of ˜1 mg/ml frozen at −80° C.
hM3 Competition Binding Assay Protocol
Membranes (5 µg/well) were incubated with ^3H-NMS (at a concentration 5×KD) plus/minus test compound for 24 hr at RT (room temperature) in a 1 ml polystyrene 96-well deep well block. The final assay volume was 200 µl, comprising of: 20 µl plus/minus test compound; 20 µl ^3H-NMS (Perkin Elmer NEN 636) and 160 µl membrane solution. Total Binding was defined with 0.1% DMSO; Non-Specific Binding was defined with 1 µM Atropine. Assay buffer was 20 mM Hepes (pH 7.4).
Once all assay components were added, plates were covered and incubated at room temperature for 24 hrs with shaking. The assay was terminated by rapidly filtering through GF/B Unifilter plates pre-soaked with 0.5% polyethylenimine, using a Packard filtermate harvester, the filter plate was then washed with 3×1 ml 4° C. assay buffer. The filter plates were dried at 45° C. for 1 hour. The bottoms of the filter plates were sealed and 50 µl/well of Microscint ‘0’ added, the top of the plates were sealed with a Topseal. Following 90 mins, the plates were read on an NXT Topcount (1 minute read time per well).
The resulting data was expressed as a percentage of the specific binding (Specific binding=Total binding−Non-Specific Binding). % specific binding versus test compound concentration was plotted to determine an IC50 from a sigmoid curve using an in-house data analysis programme. IC50 values corrected to Ki values by applying the Cheng-Prussoff equation: […]
where IC50 is the concentration of unlabelled drug which inhibits by 50% the specific radioligand binding. [L] is the free radioligand concentrations and KD and Ki are the equilibrium dissociation constants of the radioligand and unlabelled drug respectively.
In general, pKi refers to −log10 of the Ki, conventionally taken in molar units. Lower therefore signals a high Ki. As to `CN(CCCCCCCCCN1CCC(OC(=O)Nc2ccccc2-c2ccccc2)CC1)Cc1cc(F)c(Cl)cc1O` [Example 43, Biphenyl-2-yl-carbamic acid 1-{9-[(4-chloro-5-fluoro-2-hydroxy-benzyl)-methyl-amino]-nonyl}-piperidin-4-yl ester], the pKi is 9.53.
As for `CN(CCCCCCCCCN1CCC(OC(=O)Nc2ccccc2-c2ccccc2)CC1)C(=O)Cc1cccc(O)c1` [Example 66, Biphenyl-2-yl-carbamic acid 1-(9-{[2-(3-hydroxy-phenyl)-acetyl]-methyl-amino}-nonyl)-piperidin-4-yl ester], the pKi was 9.53.
For `CN(CCCCCCCCCN1CCC(OC(=O)Nc2ccccc2-c2ccccc2)CC1)C(=O)c1ccc(Cl)c(O)c1` [Example 62, Biphenyl-2-yl-carbamic acid 1-{9-[(4-chloro-3-hydroxy-benzoyl)-methyl-amino]-nonyl}-piperidin-4-yl ester] the value was 8.92; for `CN(CCCCCCCCCN1CCC(OC(=O)Nc2ccccc2-c2ccccc2)CC1)C(=O)c1ccc(O)c(F)c1` [Example 69, Biphenyl-2-yl-carbamic acid 1-{9-[(3-fluoro-4-hydroxy-benzoyl)-methyl-amino]-nonyl}-piperidin-4-yl ester], 9.21; for `CN(CCCCCCCCCN1CCC(OC(=O)Nc2ccccc2-c2ccccc2)CC1)C(=O)c1ccc(O)cc1F` [Example 63, Biphenyl-2-yl-carbamic acid 1-{9-[(2-fluoro-4-hydroxy-benzoyl)-methyl-amino]-nonyl}-piperidin-4-yl ester], 8.95.
In turn, `CN(CCCCCCCCCN1CCC(OC(=O)Nc2ccccc2-c2ccccc2)CC1)C(=O)c1cc(Cl)cc(Cl)c1O` [Example 56, Biphenyl-2-yl-carbamic acid 1-{9-[(3,5-dichloro-2-hydroxy-benzoyl)-methyl-amino]-nonyl}-piperidin-4-yl ester] showed a pKi of 7.95.
The compound `CN(CCCCCCCCCN1CCC(OC(=O)Nc2ccccc2-c2ccccc2)CC1)Cc1ccc(O)c(F)c1` [Example 45, Biphenyl-2-yl-carbamic acid 1-{9-[(3-fluoro-4-hydroxy-benzyl)-methyl-amino]-nonyl}-piperidin-4-yl ester] showed a pKi of 9.67.
On to `CN(CCCCCCCCCN1CCC(OC(=O)Nc2ccccc2-c2ccccc2)CC1)C(=O)c1ccc(Cl)cc1O` [Example 60, Biphenyl-2-yl-carbamic acid 1-{9-[(4-chloro-2-hydroxy-benzoyl)-methyl-amino]-nonyl}-piperidin-4-yl ester], for which the pKi was 8.44.
In turn, `CN(CCCCCCCCCN1CCC(OC(=O)Nc2ccccc2-c2ccccc2)CC1)C(=O)c1ccc(F)c(F)c1O` [Example 58, Biphenyl-2-yl-carbamic acid 1-{9-[(3,4-difluoro-2-hydroxy-benzoyl)-methyl-amino]-nonyl}-piperidin-4-yl ester] gave a pKi of 8.74. This pKi lies 0.30 log units higher than the previous one.
Compound `CN(CCCCCCCCCN1CCC(OC(=O)Nc2ccccc2-c2ccccc2)CC1)Cc1cc(Cl)ccc1O` [Example 46, Biphenyl-2-yl-carbamic acid 1-{9-[(5-chloro-2-hydroxy-benzyl)-methyl-amino]-nonyl}-piperidin-4-yl ester] had a pKi of 9.12.
Consider `CN(CCCCCCCCCN1CCC(OC(=O)Nc2ccccc2-c2ccccc2)CC1)Cc1cccc(O)c1F` [Example 51, Biphenyl-2-yl-carbamic acid 1-{9-[(2-fluoro-3-hydroxy-benzyl)-methyl-amino]-nonyl}-piperidin-4-yl ester], for which the pKi is 9.64.
In the case of `CN(CCCCCCCCCN1CCC(OC(=O)Nc2ccccc2-c2ccccc2)CC1)Cc1cc(Cl)c(O)c(Cl)c1` [Example 50, Biphenyl-2-yl-carbamic acid 1-{9-[(3,5-dichloro-4-hydroxy-benzyl)-methyl-amino]-nonyl}-piperidin-4-yl ester], the pKi was 9.66.
`CN(CCCCCCCCCN1CCC(OC(=O)Nc2ccccc2-c2ccccc2)CC1)Cc1cc(F)ccc1O` [Example 47, Biphenyl-2-yl-carbamic acid 1-{9-[(5-fluoro-2-hydroxy-benzyl)-methyl-amino]-nonyl}-piperidin-4-yl ester]: the pKi is 9.28.
For `CN(CCCCCCCCCN1CCC(OC(=O)Nc2ccccc2-c2ccccc2)CC1)Cc1cc(F)c(O)c(F)c1` [Example 53, Biphenyl-2-yl-carbamic acid 1-{9-[(3,5-difluoro-4-hydroxy-benzyl)-methyl-amino]-nonyl}-piperidin-4-yl ester] the value was 9.46; for `CN(CCCCCCCCCN1CCC(OC(=O)Nc2ccccc2-c2ccccc2)CC1)Cc1ccc(F)c(O)c1` [Example 42, Biphenyl-2-yl-carbamic acid 1-{9-[(4-fluoro-3-hydroxy-benzyl)-methyl-amino]-nonyl}-piperidin-4-yl ester], 9.63; for `CN(CCCCCCCCCN1CCC(OC(=O)Nc2ccccc2-c2ccccc2)CC1)Cc1ccc(O)c(Cl)c1` [Example 44, Biphenyl-2-yl-carbamic acid 1-{9-[(3-chloro-4-hydroxy-benzyl)-methyl-amino]-nonyl}-piperidin-4-yl ester], 9.67.
To `CN(CCCCCCCCCN1CCC(OC(=O)Nc2ccccc2-c2ccccc2)CC1)Cc1cc(Cl)cc(Cl)c1O` [Example 52, Biphenyl-2-yl-carbamic acid 1-{9-[(3,5-dichloro-2-hydroxy-benzyl)-methyl-amino]-nonyl}-piperidin-4-yl ester] belongs 9.20.
`CN(CCCCCCCCCN1CCC(OC(=O)Nc2ccccc2-c2ccccc2)CC1)C(=O)c1cccc(F)c1O` [Example 59, Biphenyl-2-yl-carbamic acid 1-{9-[(3-fluoro-2-hydroxy-benzoyl)-methyl-amino]-nonyl}-piperidin-4-yl ester] gave a pKi of 8.90.
In turn, `CN(CCCCCCCCCN1CCC(OC(=O)Nc2ccccc2-c2ccccc2)CC1)Cc1cccc(F)c1O` [Example 40, Biphenyl-2-yl-carbamic acid 1-{9-[(3-fluoro-2-hydroxy-benzyl)-methyl-amino]-nonyl}-piperidin-4-yl ester] gave a pKi of 9.20.
With `CN(CCCCCCCCCN1CCC(OC(=O)Nc2ccccc2-c2ccccc2)CC1)Cc1cccc(O)c1Cl` [Example 48, Biphenyl-2-yl-carbamic acid 1-{9-[(2-chloro-3-hydroxy-benzyl)-methyl-amino]-nonyl}-piperidin-4-yl ester], the pKi was 9.74.
`CN(CCCCCCCCCN1CCC(OC(=O)Nc2ccccc2-c2ccccc2)CC1)Cc1cc(F)cc(F)c1O` [Example 55, Biphenyl-2-yl-carbamic acid 1-{9-[(3,5-difluoro-2-hydroxy-benzyl)-methyl-amino]-nonyl}-piperidin-4-yl ester] had a pKi of 9.38.
Take `CN(CCCCCCCCCN1CCC(OC(=O)Nc2ccccc2-c2ccccc2)CC1)C(=O)c1cc(F)ccc1O` [Example 67, Biphenyl-2-yl-carbamic acid 1-{9-[(5-fluoro-2-hydroxy-benzoyl)-methyl-amino]-nonyl}-piperidin-4-yl ester]: the pKi was 9.08.
Take `CN(CCCCCCCCCN1CCC(OC(=O)Nc2ccccc2-c2ccccc2)CC1)Cc1cc(Cl)c(Cl)cc1O` [Example 41, Biphenyl-2-yl-carbamic acid 1-{9-[(4,5-dichloro-2-hydroxy-benzyl)-methyl-amino]-nonyl}-piperidin-4-yl ester]: the pKi was 8.89.
In turn, `CN(CCCCCCCCCN1CCC(OC(=O)Nc2ccccc2-c2ccccc2)CC1)Cc1cc(F)cc(Cl)c1O` [Example 49, Biphenyl-2-yl-carbamic acid 1-{9-[(3-chloro-5-fluoro-2-hydroxy-benzyl)-methyl-amino]-nonyl}-piperidin-4-yl ester] showed a pKi of 9.55.
For `CN(CCCCCCCCCN1CCC(OC(=O)Nc2ccccc2-c2ccccc2)CC1)C(=O)c1ccc(O)c(F)c1F` [Example 64, Biphenyl-2-yl-carbamic acid 1-{9-[(2,3-difluoro-4-hydroxy-benzoyl)-methyl-amino]-nonyl}-piperidin-4-yl ester] the value was 8.70; for `CN(CCCCCCCCCN1CCC(OC(=O)Nc2ccccc2-c2ccccc2)CC1)C(=O)c1cccc(Cl)c1O` [Example 57, Biphenyl-2-yl-carbamic acid 1-{9-[(3-chloro-2-hydroxy-benzoyl)-methyl-amino]-nonyl}-piperidin-4-yl ester], 9.06.
To `CN(CCCCCCCCCN1CCC(OC(=O)Nc2ccccc2-c2ccccc2)CC1)Cc1ccc(Cl)c(O)c1Cl` [Example 54, Biphenyl-2-yl-carbamic acid 1-{9-[(2,4-dichloro-3-hydroxy-benzyl)-methyl-amino]-nonyl}-piperidin-4-yl ester] belongs 9.63.
